Measured values from patent US20220306585A1, “PYRAZOLE DERIVATIVES FOR CONTROLLING ARTHROPODS” (Bayer Animal Health GmbH, priority 2019, published 2022).
Values after ≈ are worked out from the molar mass of the structure shown.

Tests used:
[1] = Degradation of prodrugs and release of parent drug in rat plasma; assay type: in vitro ADME; details: male, Hannover-Janvier RjHan, rat plasma (Li-heparin), 37° C., percent area of prodrug at t0
Procedure: Measurement of Release of Parent Drug in Rat Plasma 1 mg of the test compound was dissolved in 0.5 mL acetonitrile/dimethylsulfoxide 9:1. For complete dissolution the HPLC vial was shaken and treated with ultrasound. 20 μL of this solution were added to 1 mL of rat plasma (Li-heparin plasma, Hannover-Janvier rat, RjHan male) with vortexing at a temperature of 37° C. Aliquots (100 μL each) were taken at 0.17, 0.5, 1, 1.5, 2 and 4 hours. Each aliquot was transferred to a vial containing 300 μL of acetonitrile/citric acid buffer pH 3 8:2. These solutions were centrifuged at 5000 rpm for 10 minutes. The supernatant was analysed by HPLC (Method 8) to determine the amount of the test compound. In addition, the reaction mixture was analysed by method 9 (HPLC-MS) at the final timepoint. Both decrease of the prodrug concentration and increase of parent drug concentration were monitored. All data is given as percent area of the prodrug at to.

[2] = test system: Dermacentor variabilis nymph; test: Antiparasitic activity after administration to rats: ticks; assay type: in vivo; details: Dermacentor variabilis nymph; for In-vivo Efficacy SD2: study day 2; for In-vivo Efficacy SD9: study day 9; for In-vivo Efficacy SD16: study day 16; for In-vivo Efficacy SD23: study day 23; for In-vivo Efficacy SD30: study day 30; for In-vivo Efficacy SD37: study day 37
Procedure: (§1) Measurement of the Antiparasitic Activity after Administration of a Prodrug to Rats Compounds were dissolved in the appropriate volume of glycerol formal (p.a.) just before application to the animals (dose volume was adjusted to 0.03 mL/kg bodyweight). 5 rats per group were either injected intraperitoneally or subcutaneously. Rats were infested with 30 Dermacentor variabilis nymphs on study days −2, 7, 14, 21, 28, 35 and 30 adult Ctenocephalides fleas on study days −1, 8, 15, 22, 29, 36. Parasite counts were performed on study days 2, 9, 16, 23, 30, 37. Percent efficacy was calculated as arithmetic mean parasite numbers as life attached tick numbers and live flea numbers of the respective study group in comparison to parasite counts on a placebo-treated control group. Infestation of groups with less than 75% efficacy on two consecutive counting occasions will terminated for the respective parasite.

[3] = Measurement of stability of prodrugs in buffer at pH 7.4; assay type: physicochemical; details: PBS buffer pH 7.4, 37° C., HPLC peak area, read-out: % Recovery after 24 h (stability at pH 7.4)
Procedure: Preparation of the PBS buffer solution pH 7.4: 90 g sodium chloride, 13.61 g potassium dihydrogen phosphate, 83.35 g 1M aqueous sodium hydroxide were dissolved in water. More water was added up to a total volume of 1 L. This solution was diluted 1:10 with water. Eventually, pH was adjusted to pH 7.4 by the addition of phosphoric acid.
Measurement of Stability of Prodrugs in Buffer at pH 7.4
0.15 mg of the test compound were dissolved in 0.1 mL dimethylsulfoxide and 0.4 mL acetonitrile. For complete dissolution, the HPLC vial with the sample solution was shaken and treated with ultrasound. Then, 1.0 mL of PBS buffer solution pH 7.4 was added and the sample was vortexed. The sample solution was analysed by HPLC (method 8) to determine the amount of the test compound at a particular time over a period of 24 h at 37° C. The peak areas, given as percentage of total area, are used for quantification. In addition, the reaction mixture was analysed by method 9 (HPLC-MS) at the final timepoint.

[4] = Measurement of solubility in buffer at pH 6.5; assay type: physicochemical; details: aqueous buffer, kinetic from dmso stock; PBS buffer pH 6.5, shaken 24 h at rt, LC-MSMS; read-out: Solubility of example compounds at pH 6.5
Procedure: Measurement of Solubility in Buffer at pH 6.5 2-4 mg of the test compound are dissolved in DMSO to reach a concentration of 50 g/L (solution A). To 10 μL of this solution 960 μL PBS buffer pH 6.5 are added (final concentration: […]); the mixture is shaken for 24 h at rt in a 96 well plate. An aliquot is centrifuged at 42000 rpm für 30 min. The supernatant is diluted with acetonitrile/water (8:2) 1:10 and 1:1000 resp. This diluted samples are analyzed by LC-MSMS. Calibration: 10 μL of solution A are diluted with 823 μL DMSO (final concentration: 600 μg/mL), which is further diluted with acetonitrile/water 8:2 by a factor of 100 (provides solution B). The calibration curve is obtained from solution B by further diluting with acetonitrile/water 8:2 with target concentrations of 1.2-12-60-600 ng/mL and injecting these four solutions for MS measurement. PBS-Puffer: 6.18 g sodium chloride and 3.96 g sodium dihydrogen phosphate are dissolved in 1 L aqua dist., the pH is adjusted to 6.5 with IN sodium hydroxide.

[5] = test system: Ctenocephalides felis adult; test: Antiparasitic activity after administration to rats: fleas; assay type: in vivo; details: Ctenocephalides felis adult; for In-vivo Efficacy SD2: study day 2; for In-vivo Efficacy SD9: study day 9; for In-vivo Efficacy SD16: study day 16
Procedure: as §1

[6] = Evaluation of pharmacokinetics in vivo (rat); details: concentration of Parent Drug A after admin. of the named substance
Procedure: (§2) Evaluation of Pharmacokinetics (In Vivo) To evaluate the pharmacokinetics of test substances in vivo, these test substances are dissolved in appropriate formulation vehicles (ethanol, dimethyl sulfoxide, PEG400, glycerol formal etc.), or mixtures thereof. The test substances are then administered to rats or dogs intravenously, orally or subcutaneously. The intravenous application is performed as bolus. Administered doses range usually between 0.1 to 5 mg/kg, however, doses for subcutaneous and oral administration can exceed this range up to doses of 30 mg/kg. Blood samples are retrieved via a catheter, exsanguination or venous puncture in vials containing appropriate anticoagulants, such as lithium heparinate or potassium EDTA. Plasma is generated from the blood via centrifugation. Blood samples are taken over an appropriate time interval, usually lasting up to 144 h after administration. If necessary, samples from later time points can also be taken. If possible, time points are chosen so that the initial absorption phase, the maximum plasma concentration (Cmax), and exposure within a certain time interval (AUC(0-t))aer described. Furthermore, it is possible to also retrieve organ-, tissue- and urine samples. The quantitative measurement of the test substances in the samples is performed using calibration curves in the respective matrices. The protein content of the samples is precipitated using acetonitrile or methanol. Thereafter, the samples are separated using HPLC in combination with reversed phase chromatography columns. The HPLC system is coupled to a triple quadrupole mass spectrometer via an electrospray interface. The evaluation of the plasma concentration/time profiles are afterwards evaluated using a validated pharmacokinetics evaluation program. […] Relative bioavailability (Frel) was used to describe the exposure of parent drug after prodrug administration compared to the exposure of parent drug after direct administration of compound A which was normalised to 100%.

[7] = Evaluation of pharmacokinetics in vivo (dog)
Procedure: as §2

N#CC1(N(COC(=O)CCC(=O)O)C(=O)c2cc(-c3cnn(-c4c(Cl)cc(C(F)(C(F)(F)F)C(F)(F)F)cc4OC(F)(F)F)c3)ccc2Cl)CC1 [Example 8, 4-{[(2-Chloro-5-{1-[2-chloro-4-(1,1,1,2,3,3,3-heptafluoropropan-2-yl)-6-(trifluoromethoxy)phenyl]-1H-pyrazol-4-yl}benzoyl)(1-cyanocyclopropyl)amino]methoxy}-4-oxobutanoic acid]
recovery at 0.17 h, 39 µg/mL ([1]; 0.17 h): 96%
recovery at 0.5 h, 39 µg/mL ([1]; 0.5 h): 95%
recovery at 1 h, 39 µg/mL ([1]; 1 h): 93%
recovery at 1.5 h, 39 µg/mL ([1]; 1.5 h): 92%
recovery at 2 h, 39 µg/mL ([1]; 2 h): 90%
recovery at 4 h, 39 µg/mL ([1]; 4 h): 86%
In-vivo Efficacy SD2 ([2]; 12.00 mg/kg sc): 100%
In-vivo Efficacy SD9 ([2]; 12.00 mg/kg sc): 100%
In-vivo Efficacy SD16 ([2]; 12.00 mg/kg sc): 99%
In-vivo Efficacy SD23 ([2]; 12.00 mg/kg sc): 100%
In-vivo Efficacy SD30 ([2]; 12.00 mg/kg sc): 100%
In-vivo Efficacy SD37 ([2]; 12.00 mg/kg sc): 100%
In-vivo Efficacy SD42 ([2]; 12.00 mg/kg sc, study day 42): 92%
recovery at 24 h, 0.1 mg/mL [3]: 95%
solubility at 24 h [4]: 12 µg/mL (≈ 15.4 µM)
In-vivo Efficacy SD2 ([5]; 12.00 mg/kg sc): 100%
In-vivo Efficacy SD9 ([5]; 12.00 mg/kg sc): 99%
In-vivo Efficacy SD16 ([5]; 12.00 mg/kg sc): 100%
In-vivo Efficacy SD23 ([5]; 12.00 mg/kg sc, study day 23): 100%
In-vivo Efficacy SD30 ([5]; 12.00 mg/kg sc, study day 30): 97%
In-vivo Efficacy SD37 ([5]; 12.00 mg/kg sc, study day 37): 88%
In-vivo Efficacy SD42 ([5]; 12.00 mg/kg sc, study day 42): 78%
AUC(0-144 h)norm of parent drug A ([6]; iv bolus): 12 kg·h/L
AUC(0-144 h)norm of parent drug A ([6]; sc): 6.7 kg·h/L

N#CC1(NC(=O)c2cc(-c3cnn(-c4c(Cl)cc(C(F)(C(F)(F)F)C(F)(F)F)cc4OC(F)(F)F)c3)ccc2Cl)CC1 [Parent Drug A, 2-Chlor-5-{1-[2-chlor-4-(1,1,1,2,3,3,3-heptafluorpropan-2-yl)-6-(trifluormethoxy)phenyl]-1H-pyrazol-4-yl}-N-(1-cyanocyclopropyl)benzamide, reference compound]
In-vivo Efficacy SD2 ([2]; 10 mg/kg ip): 96%
In-vivo Efficacy SD9 ([2]; 10 mg/kg ip): 87%
In-vivo Efficacy SD16 ([2]; 10 mg/kg ip): 83%
In-vivo Efficacy SD23 ([2]; 10 mg/kg ip): 93%
In-vivo Efficacy SD30 ([2]; 10 mg/kg ip): 53%
In-vivo Efficacy SD37 ([2]; 10 mg/kg ip): 32%
In-vivo Efficacy SD2 ([2]; 10 mg/kg sc): 72%
In-vivo Efficacy SD9 ([2]; 10 mg/kg sc): 61%
AUC(0-72 h)norm of parent drug A ([7]; iv bolus, concentration of Parent Drug A after admin. of the named substance): 6.0 kg·h/L
bioavailability ([7]; plasma, sc, calculated based on AUC(0-t)norm, parent drug A normalised to 100%, read-out: Frel (relative bioavailability)): 100%
AUC(0-384 h)norm of parent drug A ([7]; sc, concentration of Parent Drug A after admin. of the named substance): 1.0 kg·h/L
In-vivo Efficacy SD2 ([5]; 10 mg/kg ip): 84%
In-vivo Efficacy SD9 ([5]; 10 mg/kg ip): 68%
In-vivo Efficacy SD16 ([5]; 10 mg/kg ip): 71%
In-vivo Efficacy SD2 ([5]; 10 mg/kg sc): 53%
In-vivo Efficacy SD9 ([5]; 10 mg/kg sc): 44%
AUC(0-144 h)norm of parent drug A ([6]; iv bolus): 11 kg·h/L
AUC(0-144 h)norm of parent drug A ([6]; sc): 1.7 kg·h/L
